Measurements published in PubChem BioAssay AID2060618 (Molecular Pharmacology Branch, DTP, NCI, 2025).

Test system: 454973-116-R2-J3-PDC spheroids, percent test/control viability
Assay: Anticancer human tumor 454973-116-R2-J3-PDC patient-derived pancreatic carcinoma cell line growth inhibition [CLK]
Conditions: spheroids with HUVEC and MSC; for IC50: curve of first compound; for viability, T/C: stronger effect = lower value
Outline: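 Multi-cell-type spheroids combined patient-derived tumor cells with HUVEC endothelial cells and human mesenchymal stem cells. Paired agents were dosed in half-log steps down from about clinical Cmax, or from 10 microM where Cmax was unknown.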
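Also: spheroids exposed to compounds for 7 days before readout.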

`C=CC(=O)Nc1cc(Nc2nccc(-c3cn(C)c4ccccc34)n2)c(OC)cc1N(C)CCN(C)C` + CNC(=O)c1ccc(Nc2nc(OC3CCCC3)c3c(-c4ccc5nc(C)oc5c4)c[nH]c3n2)c(OC)c1 was tested, and the IC50 (second compound 0.0316 µM) was over 300 nM, the IC50 (second compound 0.1 µM) was over 300 nM and the IC50 (second compound 0.316 µM) was under 0.949 nM. For the same compound, the IC50 (second compound 1 µM) was under 0.949 nM, the IC50 (second compound 3.16 µM) was under 0.949 nM and the IC50 (second compound 10 µM) was under 0.949 nM. It also gave a viability, T/C (second compound 0.0316 µM, first compound 0.000949 µM) of 106%, a viability, T/C (second compound 0.0316 µM, first compound 0.003 µM) of 108% and a viability, T/C (second compound 0.0316 µM, first compound 0.00949 µM) of 92.5%. The viability, T/C (second compound 0.0316 µM, first compound 0.03 µM) was 107%, the viability, T/C (second compound 0.0316 µM, first compound 0.0949 µM) was 104% and the viability, T/C (second compound 0.0316 µM, first compound 0.3 µM) was 101%. The viability, T/C (second compound 0.1 µM, first compound 0.000949 µM) was 95.9%, the viability, T/C (second compound 0.1 µM, first compound 0.003 µM) was 106% and the viability, T/C (second compound 0.1 µM, first compound 0.00949 µM) was 90.7%. For the same compound, the viability, T/C (second compound 0.1 µM, first compound 0.03 µM) was 80.9%, the viability, T/C (second compound 0.1 µM, first compound 0.0949 µM) was 69.7% and the viability, T/C (second compound 0.1 µM, first compound 0.3 µM) was 61%. The viability, T/C (second compound 0.316 µM, first compound 0.000949 µM) was 43.8%, the viability, T/C (second compound 0.316 µM, first compound 0.003 µM) was 36.4% and the viability, T/C (second compound 0.316 µM, first compound 0.00949 µM) was 30.5%. It also gave a viability, T/C (second compound 0.316 µM, first compound 0.03 µM) of 34.8%, a viability, T/C (second compound 0.316 µM, first compound 0.0949 µM) of 36.4% and a viability, T/C (second compound 0.316 µM, first compound 0.3 µM) of 32.7%. It also gave a viability, T/C (second compound 1 µM, first compound 0.000949 µM) of 27.9%, a viability, T/C (second compound 1 µM, first compound 0.003 µM) of 30.9% and a viability, T/C (second compound 1 µM, first compound 0.00949 µM) of 30.5%. It also gave a viability, T/C (second compound 1 µM, first compound 0.03 µM) of 29.8%, a viability, T/C (second compound 1 µM, first compound 0.0949 µM) of 34.5% and a viability, T/C (second compound 1 µM, first compound 0.3 µM) of 33.9%. It also gave a viability, T/C (second compound 3.16 µM, first compound 0.000949 µM) of 29.9%, a viability, T/C (second compound 3.16 µM, first compound 0.003 µM) of 28.3% and a viability, T/C (second compound 3.16 µM, first compound 0.00949 µM) of 26.7%. For the same compound, the viability, T/C (second compound 3.16 µM, first compound 0.03 µM) was 27.8%, the viability, T/C (second compound 3.16 µM, first compound 0.0949 µM) was 31.1% and the viability, T/C (second compound 3.16 µM, first compound 0.3 µM) was 22.1%. For the same compound, the viability, T/C (second compound 10 µM, first compound 0.000949 µM) was 33.9%, the viability, T/C (second compound 10 µM, first compound 0.003 µM) was 24% and the viability, T/C (second compound 10 µM, first compound 0.00949 µM) was 21.9%. The viability, T/C (second compound 10 µM, first compound 0.03 µM) was 25.4%, the viability, T/C (second compound 10 µM, first compound 0.0949 µM) was 27.9% and the viability, T/C (second compound 10 µM, first compound 0.3 µM) was 20.4%.
